Laboratory results from patent US11834424B2, “Compounds useful as chaperone-mediated autophagy modulators” (ALBERT EINSTEIN COLLEGE OF MEDICINE, priority 2018, dated 2023).

How the values were obtained:
[1] = tested on: chaperone-mediated autophagy (CMA) in NIH 3T3 fibroblasts; assay: Photoswitchable KFERQ-Dendra CMA reporter assay in NIH 3T3 fibroblasts; assay type: cell-based
Protocol: The photoactivatable CMA reporter assay was constructed by inserting a sequence of 21 amino acid of Ribonuclease A bearing the CMA-targeting motif in the N-terminus multicloning site of the photoactivatable protein mCherryl or the photoswitchable protein Dendra 2.
NIH 3T3 fibroblasts were stably transduced with a photoconvertible CMA reporter, KFERQ-Dendra. were photoswitched by exposure to a […] (constant current) LED (Norlux, 405 nm) for 10 minutes and at the desired times fixed in 3% formaldehyde. Test cells were exposed to the indicated concentrations of the compounds for 12 hours (FIG. 3A) or 24 hours (FIG. 3B). Cells were imaged using high content microscopy (Operetta, Perkin Elmer) or by capturing images with an Axiovert 200 fluorescence microscope (Zeiss) with apotome and equipped with a 63/1.4 NA oil objective lens and red (ex. 570/30 nm, em. 615/30 nm), cyan (ex. 365/50 nm and em. 530/45 nm) and green (ex. 475/40 nm and em. 535/45 nm) filter sets (Chroma). Images were acquired with a high-resolution CCD camera after optical sectioning through the apotome. CMA activity measured as the average number of fluorescent puncta (CMA active lysosomes) per cell. Values are expressed relative to values in untreated cells that were assigned an arbitrary value of 1 and are mean of >2,500 cells counted per condition. The S.D. in all instances was <0.01% mean value. Table 2 provides a comparison of compounds CA39.1 and its comparative example CA39 and CA77.01 and its comparative example CA77.

in vitro = conditions: for CLint(mic) / Remaining (T = 60 min): 3 μM; for Remaining (T = 60 min): 1 h; for CLint scaled at 3 μM: CLint(liver)
Protocol: Microsome stability was determined in human, rat, and mouse, liver microsomes. Compound at 3 μM final concentration along with 0.5 mg/mL microsome protein and 1 mM NADPH was incubated for 0, 5, 15, 30 and 60 min. As a negative control, test compound was incubated with microsomes in the absence of NADPH. Samples were quenched with methanol and centrifuged for 25 min at 2500 rpm to precipitate proteins. Supernatants were analyzed (N=3) by LC-MS/MS. The In peak area ratio (compound peak area/internal standard peak area) was plotted against time and the gradient of the line determined the elimination rate constant [k=(−1)(slope)].
R^2 is the correlation coefficient of the linear regression for the determination of kinetic constant. T1/2 is the half life and CLint (mic) is the intrinsic clearance. CLint(liver)=CLint (mic)*mg microsomal protein/g liver weight*g liver weight/kg body weight. Liver weight/kg body weight is 20 g/kg for human.

[2] = Pharmacokinetics (plasma and brain levels) in ICR (CD-1) mice; assay type: in vivo; conditions: ICR (CD-1) mice
Protocol: ICR (CD-1) male mice were fasted at least three horns and water was available ad libitum before the study. Animals were housed in a controlled environment, target conditions: temperature 18 to 29° C., relative humidity 30 to 70%. Temperature and relative humidity was monitored daily. An electronic time controlled lighting system was used to provide a 12 h light/12 h dark cycle. 3 mice for each indicated time point. ICR (CD-1) mice were administered CA77 at 1 mg/kg i.v. and 30 mg/kg p.o. or CA77.1 at 1 mg/kg i.v. (FIG. 2A) and 10 mg/kg p.o. (FIG. 2B). Three (3) mice were included in each dosage and time group. Mice were sacrificed and plasma and brains were obtained at 0.083, 0.25, 0.50, 1.0, 2.0, 4.0, 8.0, and 24.0 hours after administration and drug concentration determined using LC-MS/MS. Brains were removed, homogenized with a tissue homogenizer in cold 5% w/v BSA in phosphate buffer saline (PBS). A 100 microliter aliquots of brain samples were dispensed in to glass culture tubes and mixed with ethyl acetate (800 μl), vortexed, and centrifuged. The organic layer was transferred to a fresh culture tube, dried under nitrogen, and reconstituted in mobile phase for quantitation. Pharmacokinetic parameters were determined by standard methods using Phoenix WinNonlin 6.3 software.
Tables 3A and 3B provide the concentrations of CA77 in ICR (CD-1) mouse plasma (3A) and mouse brain (3B) following i.v. administration of 1 mg/kg CA77. Table 3C provides the brain/plasma ratio of CA77 following i.v. administration of 1 mg/kg CA77. Shaded cells indicate data not included in statistics due to aberrant value. BLQ=Below Limit of Quantitation.
Tables 5A and 5B provide the concentrations of CA77.1 in ICR (CD-1) mouse plasma (5A) and mouse brain (5B) following i.v. administration of 1 mg/kg CA77.1. Table 5C provides the brain/plasma ratio of CA77.1 following i.v. administration of 1 mg/kg CA77.1. The plasma and brain pharmacokinetic parameters for CA77.1 are provided in Table 6. *—cells contain data not present in the statistics.

[3] = T1/2, human microsomes, 3 μM compound, 0.5 mg/mL protein, 1 mM NADPH

Row | SMILES | CMA activity (fluorescent puncta per cell, relative to untreated cells = 1) ([1]; Time 5) | CMA activity (fluorescent puncta per cell, relative to untreated cells = 1) ([1]; Time 10) | CMA activity (fluorescent puncta per cell, relative to untreated cells = 1) ([1]; Time 20) | CMA activity (fluorescent puncta per cell, relative to untreated cells = 1) ([1]; Time 30) | half-life at 3 μM (in vitro; human, microsomes) | CLint(mic) (in vitro; human, microsomes) | Remaining (T = 60 min) (in vitro; human, microsomes) | CLint scaled at 3 μM (in vitro; human, microsomes) | half-life at 3 μM (in vitro; [3]) | other results
1 | Clc1ccc2c(c1)OCC(c1ccc(-c3ccccc3)cc1)=N2 [CA39, 3-([1,1′-biphenyl]-4-yl)-7-chloro-2H-benzo[b][1,4]oxazine, reference compound] | 2.457 | 2.619 | 3.587 | 4.374 | 37.9 min | 36.6 µL/min/mg | 30.1% | 32.9 mL/min/kg | – | –
2 | Clc1ccc2nc(-c3ccc(-c4ccccc4)cc3)cnc2c1 [CA39.1, 2-([1,1′-biphenyl]-4-yl)-6-chloroquinoxaline] | 2.107 | 2.233 | 2.605 | 2.925 | > 145 min | < 9.6 µL/min/mg | 96.0% | < 8.6 mL/min/kg | – | –
3 | O=S(=O)(Nc1ccc(-c2cnc3cc(Cl)ccc3n2)cc1)C(F)(F)F [CA77, reference compound] | – | – | – | – | – | – | – | – | – | AUCINF_obs ([2]; i.v. 1 mg/kg): 35.8 ng·h/mL; AUClast ([2]; i.v. 1 mg/kg): 35.3 ng·h/mL; CL_obs ([2]; i.v. 1 mg/kg): 465 mL/min/kg; Cmax ([2]; i.v. 1 mg/kg): 36.2 ng/mL; MRTINF_obs ([2]; i.v. 1 mg/kg): 57.1 min; T1/2 ([2]; i.v. 1 mg/kg): 38.1 min; Tmax ([2]; i.v. 1 mg/kg): 4.98 min; VSS_obs ([2]; i.v. 1 mg/kg): 26.548 L/kg; F % ([2]; p.o. 30 mg/kg vs i.v. 1 mg/kg): 124%; AUCINF_obs ([2]; p.o. 30 mg/kg): 1458 ng·h/mL; AUClast ([2]; p.o. 30 mg/kg): 1317 ng·h/mL; CL_obs ([2]; p.o. 30 mg/kg): 343 mL/min/kg; Cmax ([2]; p.o. 30 mg/kg): 278 ng/mL; MRTINF_obs ([2]; p.o. 30 mg/kg): 238 min; T1/2 ([2]; p.o. 30 mg/kg): 131 min; Tmax ([2]; p.o. 30 mg/kg): 120 min
4 | O=C(O)Cc1ccccc1Nc1c(Cl)cccc1Cl [Diclofenac] | – | – | – | – | 105 min | – | – | 94.4 mL/min/kg | 15.7 min | –
5 | C[C@]12CC[C@H]3[C@@H](CCC4=CC(=O)CC[C@@]43C)[C@@H]1CC[C@@H]2O [Testosterone] | – | – | – | – | – | – | – | – | 57.5 min | –
